# Several values for one entry are separate records, joined by “and”; a condition that tells them apart may be missing. Equal values may be shown once.
# Key:
# 5HT1F = molecular target: T1, 5HT1F (Homo sapiens, UniProt P30939); test: β-arrestin2 recruitment (Tango); type: cell-based; details: for β-arrestin2 recruitment response, agonist mode (single replicate values): Fig_S10j; for Fig_S10j dose-response, drug alone (agonist mode), β-arrestin2 recruitment: single replicate values
# T1 construct: expressed in transfected cells; host or cells: HTLA cells expressing TEV-fused β-arrestin2
# T1 sequence (P30939 1-366): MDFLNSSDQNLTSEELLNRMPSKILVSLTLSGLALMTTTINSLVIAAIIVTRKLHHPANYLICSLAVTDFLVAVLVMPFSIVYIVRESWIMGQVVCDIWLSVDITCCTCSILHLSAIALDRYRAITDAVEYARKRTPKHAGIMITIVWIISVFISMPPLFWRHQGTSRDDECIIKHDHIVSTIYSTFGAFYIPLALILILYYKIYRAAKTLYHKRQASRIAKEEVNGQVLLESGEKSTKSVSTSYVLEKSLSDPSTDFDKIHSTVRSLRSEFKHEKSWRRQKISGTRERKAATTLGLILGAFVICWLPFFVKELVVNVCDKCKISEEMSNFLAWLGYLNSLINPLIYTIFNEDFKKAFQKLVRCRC
# [1] = system: serotonin receptor (subtype not given; reference agonist serotonin); test: β-arrestin2 recruitment (Tango), agonist activity, source data Fig_S10l; type: cell-based, human; details: drug alone
# DRD2 (D2 long receptor) = DRD2 (D2 long receptor) (Homo sapiens, UniProt P14416); test: β-arrestin2 recruitment (Tango), HTLA cells; type: cell-based; details: for response, concentration-response data point (replicates): Fig_S10a, drug alone
# Sequence of DRD2 (D2 long receptor) (P14416 whole entry): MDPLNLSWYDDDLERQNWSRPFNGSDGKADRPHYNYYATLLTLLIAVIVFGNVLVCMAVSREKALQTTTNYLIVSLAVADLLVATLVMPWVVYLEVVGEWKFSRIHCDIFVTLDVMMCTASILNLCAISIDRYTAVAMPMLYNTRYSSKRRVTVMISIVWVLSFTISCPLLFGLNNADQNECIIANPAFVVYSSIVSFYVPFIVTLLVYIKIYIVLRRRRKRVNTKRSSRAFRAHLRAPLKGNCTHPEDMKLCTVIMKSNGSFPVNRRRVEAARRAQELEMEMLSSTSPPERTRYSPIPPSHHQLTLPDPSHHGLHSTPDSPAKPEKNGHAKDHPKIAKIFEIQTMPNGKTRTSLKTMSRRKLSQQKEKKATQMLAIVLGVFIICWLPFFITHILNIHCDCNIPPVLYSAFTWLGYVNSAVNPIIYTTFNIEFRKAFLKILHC
smiles,measurement,setting,value
CCOc1cccc2cc([C@H](C)NCC3(O)CCCCC3)oc12 [O4SE6],"β-arrestin2 recruitment response, agonist mode (single replicate values)",5HT1F; Log[Drug] -8,1.302 and -0.3873 and 2.074 and -2.101 and -1.406 and -2.308 and -1.812 and -0.8607 and -0.04463
same,"β-arrestin2 recruitment response, agonist mode (single replicate values)",5HT1F; Log[Drug] -8.52,0.304 and 0.5074 and 1.87 and 1.981 and -1.055 and -1.27 and -1.358 and -1.238 and -0.4845
same,"β-arrestin2 recruitment response, agonist mode (single replicate values)",5HT1F; Log[Drug] -9,0.9904 and 0.706 and 0.885 and 0.6945 and 9.325 and -1.862 and -2.066 and -0.6583 and 0.2247
same,"β-arrestin2 recruitment response, agonist mode (single replicate values)",5HT1F; Log[Drug] -9.52,3.047 and -0.8801 and 2.567 and 4.29 and 2.342 and -1.433 and -1.621 and -2.0051 and -0.408
same,"β-arrestin2 recruitment response, agonist mode (single replicate values)",5HT1F; Log[Drug] -10,4.819 and -0.0956 and 1.856 and -1.573 and -2.24 and -0.1941 and -0.1562 and -0.3459 and -1.4329
same,"β-arrestin2 recruitment response, agonist mode (single replicate values)",5HT1F; Log[Drug] -10.52,0.4927 and 0.6104 and 0.5001 and 1.318 and -2.635 and -1.961 and -1.313 and -0.102 and -0.1036
same,"β-arrestin2 recruitment response, agonist mode (single replicate values)",5HT1F; Log[Drug] -11,1.294 and -0.1888 and 1.488 and -1.416 and -3.18 and -0.3234 and -0.2837 and 1.1189 and -0.7348
same,"β-arrestin2 recruitment response, agonist mode (single replicate values)",5HT1F; Log[Drug] -11.52,2.172 and 1.385 and 0.6864 and -1.406 and -1.13 and -0.05788 and -1.691 and -2.064 and -2.201
same,"β-arrestin2 recruitment response, agonist mode (single replicate values)",5HT1F; Log[Drug] -12,0.3211 and 1.218 and -0.05883 and -2.747 and -2.758 and -0.03745 and -0.9037 and -1.7453 and 2.037
same,"Fig_S10j dose-response, drug alone (agonist mode), β-arrestin2 recruitment",5HT1F; Log[Drug] -5,0.3849 and -0.983 and 0.7697 and -1.569 and -1.842 and 2.318 and -0.9197 and -0.3475 and -1.47
same,"Fig_S10j dose-response, drug alone (agonist mode), β-arrestin2 recruitment",5HT1F; Log[Drug] -5.52,7.151 and 5.788 and -0.505 and -0.4698 and 0.6264 and -0.6469 and -1.685 and -0.2789 and -1.819
same,"Fig_S10j dose-response, drug alone (agonist mode), β-arrestin2 recruitment",5HT1F; Log[Drug] -6,2.525 and 0.2795 and 1.682 and -0.463 and -1.025 and 2.25 and -2.251 and -0.6646 and -0.8511
same,"Fig_S10j dose-response, drug alone (agonist mode), β-arrestin2 recruitment",5HT1F; Log[Drug] -6.52,3.045 and 0.7943 and 0.9757 and -1.712 and -2.09 and -1.297 and -2.011 and -0.3459 and -1.811
same,"Fig_S10j dose-response, drug alone (agonist mode), β-arrestin2 recruitment",5HT1F; Log[Drug] -7,1.287 and -0.1961 and 3.15 and 1.852 and -1.692 and -1.42 and -0.2821 and 1.046 and -0.8687
same,"Fig_S10j dose-response, drug alone (agonist mode), β-arrestin2 recruitment",5HT1F; Log[Drug] -7.52,-0.2819 and 1.395 and 1.76 and -1.559 and -1.409 and -1.542 and -1.242 and 0.6631 and 0.4096
same,"response, Fig_S10l, replicate values",[1]; Log[Drug] -6.52,-2.091
same,"response, Fig_S10l, replicate values",[1]; Log[Drug] -7,-4.051 and -1.4228 and 2.693 and -6.163 and -1.5474 and -1.737 and -7.607 and -30.8777 and -6.976
same,"response, Fig_S10l, replicate values",[1]; Log[Drug] -7.52,-6.555 and -13.4609 and -0.98 and 4.322 and -3.875 and -2.693 and -7.055 and 7.925 and -34.7877
same,"response, Fig_S10l, replicate values",[1]; Log[Drug] -8,-3.792 and 35.132 and 2.507 and -11.1986 and -6.626 and 6.545 and -5.91 and -30.1494 and -3.473
same,"response, Fig_S10l, replicate values",[1]; Log[Drug] -8.52,1.522 and -11.8615 and -2.437 and 12.7169 and -12.0506 and -8.665 and 20.957 and -2.778 and -10.1926
same,"response, Fig_S10l, replicate values",[1]; Log[Drug] -9,-4.295 and 4.13 and 0.2396 and -2.794 and 1.184 and 0.6235 and -1.336 and -7.8842 and -10.8253
same,"response, Fig_S10l, replicate values",[1]; Log[Drug] -9.52,25.6854 and -2.744 and -6.32 and -4.5985 and -1.891 and 4.517 and 39.1804 and -4.421 and -3.844
same,"response, Fig_S10l, replicate values",[1]; Log[Drug] -10,-8.462 and 9.478 and -1.609 and 0.3049 and 15.9901 and -6.166 and 19.6932 and 12.6773 and 5.951
same,"response, Fig_S10l, replicate values",[1]; Log[Drug] -10.52,6.737 and -12.3624 and -4.665 and -4.851 and -5.052 and -4.841 and 9.484 and 11.2587 and 10.4562
same,"response, Fig_S10l, replicate values",[1]; Log[Drug] -11,-35.1417 and -18.9513 and -15.3749 and 4.5184 and -0.5498 and 5.57 and -9.125 and -8.22 and 4.834
same,"response, Fig_S10l, replicate values",[1]; Log[Drug] -11.52,-5.783 and 6.132 and 4.745 and -13.0691 and -5.46 and 4.358 and -4.571 and 10.1317 and -13.0711
same,"response, Fig_S10l, replicate values",[1]; Log[Drug] -12,6.173 and -15.2273 and 9.6789 and 4.873 and 7.863 and 1.749 and -9.697 and 0.6459 and 4.404
same,β-arrestin2 recruitment agonist activity,"DRD2 (D2 long receptor); DRD2, Tango",selective DRD2 agonist
same,EC50,"DRD2 (D2 long receptor); DRD2, β-arrestin2 recruitment (Tango), read-out: EC50 ± SEM",1050 nM
same,"response, concentration-response data point (replicates)",DRD2 (D2 long receptor); Log[Drug] -5,73.5777 and 57.7969 and 60.7943 and 65.7822 and 71.9755 and 71.4753 and 62.0106
same,"response, concentration-response data point (replicates)",DRD2 (D2 long receptor); Log[Drug] -5.52,50.6787 and 47.7474 and 41.401 and 56.0167 and 52.8546 and 51.367 and 55.6817
same,"response, concentration-response data point (replicates)",DRD2 (D2 long receptor); Log[Drug] -6,39.3966 and 41.1099 and 37.2084 and 41.7585 and 38.5021 and 38.079 and 42.2149
same,"response, concentration-response data point (replicates)",DRD2 (D2 long receptor); Log[Drug] -6.52,17.548 and 17.9218 and 22.2395 and 30.2893 and 22.7451 and 19.4102 and 21.7916
same,"response, concentration-response data point (replicates)",DRD2 (D2 long receptor); Log[Drug] -7,9.564 and 7.739 and 7.708 and 7.415 and 7.649 and 7.113 and 9.501
same,"response, concentration-response data point (replicates)",DRD2 (D2 long receptor); Log[Drug] -7.52,5.75 and 5.841 and 5.282 and 5.619 and 6.782 and 5.749 and 5.8801
same,"response, concentration-response data point (replicates)",DRD2 (D2 long receptor); Log[Drug] -8,5.434 and 5.45 and 5.389 and 5.042 and 5.329 and 5.148 and 5.345
same,"response, concentration-response data point (replicates)",DRD2 (D2 long receptor); Log[Drug] -8.52,5.277 and 5.01 and 4.9419 and 4.98 and 5.0858 and 5.308 and 5.178
same,"response, concentration-response data point (replicates)",DRD2 (D2 long receptor); Log[Drug] -9,5.4097 and 5.385 and 5.128 and 4.863 and 4.947 and 4.805 and 4.8829
same,"response, concentration-response data point (replicates)",DRD2 (D2 long receptor); Log[Drug] -9.52,5.139 and 4.887
same,"response, concentration-response data point (replicates)",DRD2 (D2 long receptor); Log[Drug] -10,5.431 and 4.786 and 4.659 and 4.856 and 4.756 and 4.79 and 4.8682
same,"response, concentration-response data point (replicates)",DRD2 (D2 long receptor); Log[Drug] -10.52,5.022 and 4.798 and 4.776 and 4.763 and 4.86 and 4.945 and 4.841
same,"response, concentration-response data point (replicates)",DRD2 (D2 long receptor); Log[Drug] -11,4.915 and 4.765 and 4.615 and 4.7302 and 4.774 and 4.749 and 4.971
same,"response, concentration-response data point (replicates)",DRD2 (D2 long receptor); Log[Drug] -11.52,4.946 and 4.662 and 4.627 and 4.695 and 4.751 and 4.656 and 4.732
same,"response, concentration-response data point (replicates)",DRD2 (D2 long receptor); Log[Drug] -12,4.887 and 4.582 and 4.674 and 4.754 and 4.726 and 4.751 and 4.811
same,Emax,"DRD2 (D2 long receptor); HTLA, read-out: Emax relative to quinpirole response, DRD2, Tango",71.3%
same,"β-arrestin2 recruitment response at DRD2 (source data, replicate values)",DRD2 (D2 long receptor); Log[Drug] -6,82.8973
same,"β-arrestin2 recruitment response at DRD2 (source data, replicate values)",DRD2 (D2 long receptor); Log[Drug] -6.52,72.8482 and 85.473 and 74.6038 and 82.6009 and 103.942 and 82.378 and 70.1593 and 68.4699 and 74.397
same,"β-arrestin2 recruitment response at DRD2 (source data, replicate values)",DRD2 (D2 long receptor); Log[Drug] -7,71.4846 and 69.3009 and 62.1089 and 68.8602 and 55.9009 and 59.7861 and 54.6819 and 54.8285 and 54.3284

# Source: PMC7044277 (Nature Communications, 2020)
